In patent US5639787A, “Therapeutic method for the treatment of cancer” (priority 1995, dated 1997):
Where two headings read alike, the source gives them in different places.

Columns and labels:
tumor cell lines = settings: cited from earlier work
[1] = safety and tolerance of ascorbic acid administration; assay type: in vivo, human
From the text: G.; O'Fallon, J. R.; et al. Failure of High Dose Vitamin C (ascorbic acid) to Benefit Patients With Advanced Cancer: A Control Trial. N Engl. J. Med., 1979; 301:687-690 and Mortel, C. G.; Fleming, T. R.; Creagan, E. T.; , et al. High Dose of Vitamin C Versus Placebo In The Treatment of Patients With Advanced Cancer Who Have Had No Prior Chemotherapy. N Engl. J. Med., 1985; 312:137-141. Heretofore the highest dosage understood to be safely administered to a human was approximately 10-15 grams. […] The positive results are believed to have been achieved by means of increased stromal resistance to the invasiveness of the malignancies studied, although the lack of monitoring of the level of ascorbic acid present in the plasma prevents an accurate assessment.
Therefore, the in vitro results are not readily duplicated in vivo and the concentrations of ascorbic acid that are effectively toxic in vitro are not as effective, nor as easy to achieve, in test subjects.
The method of the present invention comprises the treatment of cancer by administering sufficient amounts of ascorbic acid to raise the concentration of ascorbic acid in the patient's plasma above a level that is cytotoxic to the cancer tumor cells. The treatment is based on the fact that tumor cells contain between 10 and 100 fold less of the enzyme catalase than normal cells. Catalase converts toxic hydrogen peroxide to non-toxic oxygen and water. This biochemical difference between normal and tumor cells provides a window of opportunity for selective toxicity. It has been known for some time that ascorbate is capable of inducing the intracellular production of hydrogen peroxide. […] The plasma levels of ascorbic acid in patients are routinely and repeatedly monitored throughout the treatment and the amount of ascorbic acid administered is adjusted according to the individual patient's tolerance and the target level of ascorbic acid. […]

[2] = test system: PC-3 human prostate tumor cells; experiment: cells; assay type: cell-based; settings: PC-3, 120 h
Description: (§1) 5 a person was a with metastatic prostate cancer. A baseline blood sample was drawn from the patient and the serum was separated. An intravenous infusion of 105 grams of ascorbate was performed over 5 hours. At the and of the 5 hours another blood sample was taken and again the serum was separated. The pre-infusion serum sample was assayed and found to contain an ascorbic acid concentration of 3.4 mg/dl and the post-infusion serum samples were assayed and found to contain an ascorbic acid concentration of 165 mg/dl. The cytotoxic effectiveness of both serum samples was tested against a line of human prostate tumor cells called "PC-3"from American Type Culture Collection. The PC-3 cells were plated, 3,000 cells per well in plastic 96 well tissue culture plates 24 hours before the blood was taken from the patient above. 100% and 50% (diluted with complete culture medium, DMEM) serum solutions from both samples were added to 16 wells each of the PC-3 cells which had been plated earlier. After a five day incubation, the number of surviving tumor cells in the wells containing the 100% and 50% solutions of the post-infusion serum sample was compared to the number of surviving tumor cells in the wells containing the 100% and 50% solutions of the pre-infusion serum sample and the percent survival was calculated as follows: […]

[3] = humans; cited from earlier work
[4] = cited from earlier work
clinical [5] = settings: human, in vivo
From the text: It is known that ascorbic acid and salts thereof have shown a cytotoxic effect when administered in vitro to tumor cell lines. […] The cytotoxic effect of ascorbic acid is understood to relate to the increased production of intracellular hydrogen peroxide, which is more toxic to tumor cells due to the lower levels of catalase typically present in tumor cells as compared to normal cells. Although some cancers may respond to lower levels, the concentration level of ascorbic acid required for in vitro cytotoxic effectiveness are normally in the range of 5-40 mg/dl with concentrations of 30-40 mg/dl being typical. […] Moreover, since ascorbic acid is readily cleared from the body, the tumor cytotoxic effect, if any, achieved by conventionally administered doses of ascorbic acid would be transitory at best.
The method of the present invention comprises the treatment of cancer by administering sufficient amounts of ascorbic acid to raise the concentration of ascorbic acid in the patient's plasma above a level that is cytotoxic to the cancer tumor cells. The treatment is based on the fact that tumor cells contain between 10 and 100 fold less of the enzyme catalase than normal cells. Catalase converts toxic hydrogen peroxide to non-toxic oxygen and water. This biochemical difference between normal and tumor cells provides a window of opportunity for selective toxicity. It has been known for some time that ascorbate is capable of inducing the intracellular production of hydrogen peroxide. The basis of the present invention is the discovery, through experimentation, that concentrations of ascorbate capable of inducing toxic reactions in tumor cells were achievable in vivo through intravenous infusion of large amounts of ascorbic acid in solution. […] For this reason, it is desirable to exceed the levels required for in vitro cytotoxicity in tumor cells by a wide margin. It is also advantageous to maintain the cytotoxic level of ascorbic acid in the patient's plasma for as long a period of time as is reasonably possible. To achieve such results in patients, the treatment has required intravenous administration of as much as 115 grams of ascorbic acid infused over several hours to achieve an apparently effective level of ascorbic acid. […] Continuous administration of a solution of ascorbic acid maintains the plasma levels despite the bodies ability to clear the ascorbate from the patient's system. Continuation of the treatment over multiple infusions is believed to be desirable. […] The plasma levels of ascorbic acid in patients are routinely and repeatedly monitored throughout the treatment and the amount of ascorbic acid administered is adjusted according to the individual patient's tolerance and the target level of ascorbic acid. Target levels of ascorbic acid are set according to the type of cancer afflicting the patient using in vitro studies of cytotoxicity in similar cell lines. More accurate target levels can be achieved by in vitro experimentation of malignant cells taken from the patient if such are available. A further development of the treatment of the present invention involves the direct testing of the cytotoxic effectiveness of the patient's serum. Serum is drawn during the infusion and either the patient malignant cells, if available, or similar cell lines are exposed to the patient's serum with the effects observed. This direct testing provides information that is used to adjust the amount of ascorbic acid administered to ensure that effective plasma levels have been achieved.
Since, as stated above, there is not a direct translation of in vitro to in vivo results, the level of ascorbic acid within the patient's plasma must be raised to exceed the levels required for in vitro cytotoxicity in tumor cells and maintained at that level for a significant period of time. The patient undergoes an intravenous infusion of ascorbic acid in a medically acceptable aqueous solution such as Ringer's lactate. As an example, Mr. […]

[6] = test system: metastatic carcinoma of the head of the pancreas; experiment: A person, intravenous ascorbate, tumor on C-T scan; assay type: in vivo, human; settings: six months after diagnosis
Description: Since, as stated above, there is not a direct translation of in vitro to in vivo results, the level of ascorbic acid within the patient's plasma must be raised to exceed the levels required for in vitro cytotoxicity in tumor cells and maintained at that level for a significant period of time. The patient undergoes an intravenous infusion of ascorbic acid in a medically acceptable aqueous solution such as Ringer's lactate. As an example, whose case is described below was administered 115 grams of ascorbic acid in 1000 cc Ringer's lactate, infused over 8 hours. The infusions are continued until resolution of the patient's tumors have been evidenced. Normal diagnosis and classification of the patient's cancer can be used in conjunction with experimental results to predict the target levels of ascorbic acid for an effective treatment. More accurate target levels can be achieved by experimentation on cultured malignant cells taken from the patient if such are available. […] The plasma levels of ascorbic acid in patients are routinely and repeatedly monitored throughout the treatment and the amount of ascorbic acid administered is adjusted according to the individuals tolerance and the target level of ascorbic acid. […]

[7] = test system: metastatic ovarian cancer; experiment: A person, intravenous ascorbate, cancer antigen CA-125 level; assay type: in vivo, human; settings: throughout intravenous ascorbate therapy, seven months
Description: 4 a person is a person with metastatic ovarian cancer. After six months of standard chemotherapy, a second exploratory surgery was performed, at which time metastases throughout the abdominal cavity were found. The patient was started on intravenous ascorbate infusions at the quantity and rate of flow required to maintain a plasma concentration of 80 mg/dl.

clinical [8] = settings: human, in vivo, iv
Description: as §1

[9] = test system: metastatic colon carcinoma; experiment: A person, intravenous ascorbate, metastases observed during surgery; assay type: in vivo, human; settings: after four months of therapy
Description: (§2) 3 Mr. […] Cancer was discovered during exploratory surgery. Multiple metastases were found on the omentum, transverse and sigmoid colon, and the peritoneum. Biopsy samples from these metastases were obtained during surgery and most of the tumor mass was not removed. A cell culture line was established from the tissue biopsies, and the patient tumor cells were tested to determine the sensitivity of the tumor cells to ascorbic acid. […] A target level of plasma concentration of ascorbic acid was selected at three times the level found to be toxic to the patient's tumor cells. Intravenous ascorbate was begun and the infusion quantity and rate required to achieve and maintain the targeted plasma ascorbic acid concentration of 90 mg/dl was determined. Twenty hour infusions of ascorbate were given three times per week. After four months of therapy, a surgical ileostomy was performed due to chronic diarrhea.

[10] = test system: patient's tumor cells (metastatic colon carcinoma); experiment: cells; assay type: cell-based; settings: Homo sapiens, Colon carcinoma cell, read-out: toxic to percent of the patient's tumor cells
Description: as §2

[11] = test system: metastatic fibrous histiocytoma; experiment: A person, intravenous ascorbate, chest x-ray; assay type: in vivo, human
From the text: Two masses were in the left lung and one mass was in the right lung. All masses measured approximately 2 cm. in diameter.

cancer = settings: high doses of ascorbic acid; two published trials; cited from earlier work
[12] = test system: intracellular adhesion molecule-1 (ICAM-1); settings: cited from earlier work

## O=C1O[C@H]([C@@H](O)CO)C(O)=C1O [ascorbic acid]
Tumor cell lines; exposure to plasma
  effect of exposure to plasma on cytotoxic effect: diminished, to varying degrees
Tumor cell lines; normally in the range
  concentration level of ascorbic acid required for in vitro cytotoxic effectiveness: 5 to 40 mg/dL
Tumor cell lines; typical concentrations
  concentration level of ascorbic acid required for in vitro cytotoxic effectiveness, typical: 30 to 40 mg/dL
[1]; A person, 39 8 hour infusions, 57.5 to 115 grams per infusion, 13 weeks
  detrimental side effects: without reported detrimental side effects
[1]; ascorbic acid infusion process
  depletion of minerals and other substances: depletion of certain minerals and other substances
[1]; intravenous infusion of large amounts (as much as 115 grams over several hours)
  detrimental side effects: without reported detrimental side effects
[2]; read-out: percent tumor cell survival, post-infusion serum (165 mg/dl ascorbic acid), 50% serum, five days
  viability at 1650 µg/mL: 15%
[2]; read-out: percent tumor cell survival, post-infusion serum (165 mg/dl ascorbic acid), 100% serum, five days
  viability at 1650 µg/mL: 19%
[2]; read-out: percent tumor cell survival, preinfusion serum (3.4 mg/dl ascorbic acid), 50% serum, five days, reference
  viability at 34 µg/mL: 100%
[2]; read-out: percent tumor cell survival, preinfusion serum (3.4 mg/dl ascorbic acid), 100% serum, five days, reference
  viability at 34 µg/mL: 100%
[3]
  normal plasma levels of ascorbic acid: 0.39 to 1.13 mg/dL
[4]; human, before the invention
  highest dosage understood to be safely administered to a human: 10-15 grams
[4]; rare cases of extreme tumor sensitivity to ascorbic acid, fatal
  tumor necrosis and hemorrhage: rare instances of wide-spread tumor necrosis and hemorrhage
Clinical [5]; iv
  concentration at 1 h: 1580 µg/mL
  concentration at 5 h: 1850 µg/mL
  plasma concentration maintained: 80 mg/dL
  plasma level of ascorbate achieved: exceeding 150 mg/dl
  plasma levels of ascorbate achieved: 110 mg/dL
  targeted plasma ascorbic acid concentration achieved and maintained: 90 mg/dL
Clinical [5]; po
  levels of ascorbic acid between infusions: found to avoid abnormally low levels of ascorbic acid between infusions
[6]
  tumor seen on C-T scan: no detectable tumor
[7]
  level of cancer antigen CA-125: returned to normal and remained within normal limits
Clinical [8]
  ascorbic acid concentration in serum: 3.4 mg/dL
  concentration at 5 h: 1650 µg/mL
[9]
  multiple metastases, size and consistency: decreased significantly in size and have a flaccid consistency
[10]
  cytotoxicity at 300 µg/mL: 100%
[11]; after seven months of therapy
  right lung mass, chest x-ray: disappeared
[11]; after seven months, initially approximately 2 cm in diameter
  diameter of regressed left lung mass: about 1 cm
[11]; after twelve months of therapy
  left lung mass which had regressed: completely resolved
  size of the remaining left lung metastasis: no change
[11]; one of the left lung masses, after seven months of therapy
  left lung mass, chest x-ray: decreased in size (to about 1 cm) with decreased radio-opacity
cancer
  benefit to patients with advanced cancer: failure of high doses of ascorbic acid to have the desired effect in the treatment of cancer

## hyaluronic acid
[12]
  binding by ICAM-1: preferentially bound
